# Assay results taken from ChEMBL document CHEMBL3352592, “The antileishmanial activity of isoforms 6- and 8-selective histone deacetylase inhibitors” (Bioorg Med Chem Lett, 2014).
# What was measured:
# Leishmania donovani [1] = assay: Antileishmanial activity against promastigote stage of Leishmania donovani after 72 hrs by Alamar blue assay; assay type: functional, organism-based
# Leishmania donovani [2] = assay: Antileishmanial activity against axenic amastigote stage of Leishmania donovani after 72 hrs by Alamar blue assay; assay type: functional, organism-based
# Leishmania donovani [3] = assay: Antileishmanial activity against amastigote stage of Leishmania donovani infected in human THP1 cells after 48 hrs by Alamar blue assay; assay type: functional, organism-based; conditions: THP-1, 48 h
# THP-1 = assay: Cytotoxicity against human THP1 cells after 48 hrs by Alamar blue assay; assay type: ADME, cell-based; conditions: THP-1, 48 h
# DU-145 = assay: Cytotoxicity against human DU145 cells; assay type: functional, cell-based
# [4] = molecular target: T1, Protein deacetylase HDAC6 (Homo sapiens, UniProt Q9UBN7); assay: Inhibition of HDAC6 in human LNCAP cells assessed as tubulin acetylation by Western blot analysis; assay type: cell-based
# T1 sequence (Q9UBN7 whole entry): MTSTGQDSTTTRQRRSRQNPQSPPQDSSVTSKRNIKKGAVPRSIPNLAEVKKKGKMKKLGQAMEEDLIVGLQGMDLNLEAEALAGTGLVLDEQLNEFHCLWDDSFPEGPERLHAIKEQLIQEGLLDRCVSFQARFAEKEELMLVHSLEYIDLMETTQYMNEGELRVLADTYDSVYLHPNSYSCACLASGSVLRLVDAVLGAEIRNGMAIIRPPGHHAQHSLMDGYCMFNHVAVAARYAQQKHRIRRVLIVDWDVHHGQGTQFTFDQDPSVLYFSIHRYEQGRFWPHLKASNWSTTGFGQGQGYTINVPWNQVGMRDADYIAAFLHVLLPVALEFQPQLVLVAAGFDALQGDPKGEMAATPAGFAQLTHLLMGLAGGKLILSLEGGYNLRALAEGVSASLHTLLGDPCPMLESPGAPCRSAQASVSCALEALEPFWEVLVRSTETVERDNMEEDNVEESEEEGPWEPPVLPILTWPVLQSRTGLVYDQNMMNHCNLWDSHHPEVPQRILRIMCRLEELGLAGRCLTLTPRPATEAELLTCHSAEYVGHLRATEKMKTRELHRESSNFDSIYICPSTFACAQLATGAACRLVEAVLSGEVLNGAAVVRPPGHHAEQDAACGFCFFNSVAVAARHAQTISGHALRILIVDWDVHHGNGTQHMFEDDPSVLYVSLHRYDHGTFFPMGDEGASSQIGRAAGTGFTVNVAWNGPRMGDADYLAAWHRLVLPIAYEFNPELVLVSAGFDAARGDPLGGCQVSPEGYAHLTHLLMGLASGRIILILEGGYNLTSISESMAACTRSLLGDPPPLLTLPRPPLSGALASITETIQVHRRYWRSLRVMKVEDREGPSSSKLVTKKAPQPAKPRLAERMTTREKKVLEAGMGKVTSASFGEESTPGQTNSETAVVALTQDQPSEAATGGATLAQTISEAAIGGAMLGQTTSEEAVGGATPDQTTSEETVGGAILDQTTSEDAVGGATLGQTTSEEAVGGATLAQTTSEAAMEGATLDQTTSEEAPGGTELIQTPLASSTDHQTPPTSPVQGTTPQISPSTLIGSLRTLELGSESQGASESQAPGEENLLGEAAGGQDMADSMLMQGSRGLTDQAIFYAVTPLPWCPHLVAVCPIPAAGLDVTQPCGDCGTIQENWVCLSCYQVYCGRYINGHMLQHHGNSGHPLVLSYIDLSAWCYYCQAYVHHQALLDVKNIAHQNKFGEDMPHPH
# Leishmania donovani [5] = assay: Selectivity ratio of IC50 for axenic amastigote stage of Leishmania donovani to IC50 for amastigote stage of Leishmania donovani infected in human THP1 cells; assay type: functional, THP-1
SMILES,IC50 (Leishmania donovani [1]) [µg/mL],IC50 (Leishmania donovani [2]) [µg/mL],IC50 (Leishmania donovani [3]) [µg/mL],IC50 (THP-1) [µg/mL],IC50 (DU-145) [µM],IC50 [4] [µM],Ratio IC50 (Leishmania donovani [5])
CN(C)c1ccc(-c2ccc(Cn3cccc(O)c3=O)cc2)cc1,7.5,4,> 10,> 10,–,–,–
Oc1cccnc1O,> 40,> 40,> 10,> 10,–,–,–
CN(C)c1ccc(-c2ccc(Cn3cccc(O)c3=O)cc2)cn1,38.9,> 40,> 10,> 10,–,–,–
Oc1cccn(Cc2cn(-c3ccccc3)nn2)c1=S,3.2,6.2,2.7,> 10,–,–,–
Cc1ccccc1-c1ccc(Cn2cccc(O)c2=O)cc1,27.6,31.6,> 10,> 10,–,–,–
CN(C)c1ccc(-n2cc(Cn3cccc(O)c3=O)nn2)cc1,14.5,> 40,2,> 10,–,–,–
Cc1ccccc1-c1ccc(Cn2cccc(O)c2=S)cc1,0.3,34.4,2.1,> 10,13.6,7.75,–
Oc1ccc[nH]c1=S,12.7,30.7,6.1,> 10,–,–,–
O=c1c(O)cccn1Cc1ccccc1,9.3,> 40,> 10,> 10,–,–,–
N#Cc1ccc(-c2ccc(Cn3cccc(O)c3=O)cc2)cc1,4.6,5,3.5,> 10,–,–,–
N#Cc1ccc(-c2ccc(Cn3cccc(O)c3=S)cc2)cc1,0.7,6.1,0.9,> 10,–,–,5
Cc1ccc(-c2ccc(Cn3cccc(O)c3=S)cc2)cc1,0.3,31.3,3.7,> 10,–,–,–
N#Cc1cccc(-c2ccc(Cn3cccc(O)c3=S)cc2)c1,0.4,11.2,3.9,> 10,–,–,–
CN(C)c1ccc(-c2ccc(Cn3cccc(O)c3=S)cc2)cn1,2.3,6.1,2.6,> 10,–,–,–
Cc1ccc(-c2ccc(Cn3cccc(O)c3=O)cc2)cc1,6,29,> 10,> 10,–,–,–
